# Source: patent publication US8907106B2, “Process for the resolution of enantiomers by preferential evaporative crystallization” (Universite de Rouen, priority 2009, dated 2014)
# Assay: Solubility of the racemic mixture in methanol
# Format: physicochemical
compound,measurement,setting,value
O=C([O-])C(O)c1ccccc1Cl.[Na+] (racemic) [Sodium 2-chloromandelate],difference in solubility of the racemic mixture between 40° C. and 20° C.,"40° C. vs 20° C., in absolute value, solvent of Example 2 is methanol",0.85%
same,Solubility of the racemic mixture in the methanol at reflux,methanol at reflux,23%
